Earlier results on one molecule are cited in patent publication US20070043121A1 (priority 2003, published 2007).

Data set [1] has as its system sodium channel (3H-batrachotoxin).
The conditions of data set [2]: water.

In the case of `CC(C)c1cccc(C(C)C)c1O` [Propofal, 2,6-diisopropylphenol], the IC50 in data set [1] was 26 µM. In addition, the aqueous solubility result in data set [2] was “very water insoluble”.

The IC50 is the concentration needed to halve the response being measured.
